Columns and labels:
Assay type in all cases: in vivo, rat
letrozole-treated rats [1] = assay: Compression test of the 5th lumbar vertebral body after letrozole administration
Description: (§1) Material and Methods: Adult, skeletally mature, 8-month-old female Wistar rats were assigned to the following treatment groups […]: Sham (vehicle), OVX, Let-treated, OVX +Zol and Let+Zol. Zol was injected into the tail vein as a single dose of 0.8, 4 or 20 μg/kg 3 days before OVX or before initiating daily oral dosing of Let (1 mg/kg) for 24 weeks. Changes in total and cancellous bone mineral density (BMD) and cortical thickness in the proximal tibia metaphysis were monitored non-invasively by peripheral quantitative computed tomography (pQCT) at 0, 2, 4, 8, 12, 16, 20 and 24 weeks.
(§2) Both tibiae, femora and lumbar vertebrae L1-L6 were harvested at necropsy in order to carry out biomechanical testing.
(§3) Mechanical properties of the 5th lumbar vertebral body were evaluated in compression after removal of the epiphyseal ends, posterior pedicle arch and spinous process on a 4 mm segment with piano-parallel ends.

letrozole-treated rats [2] = assay: pQCT monitoring of bone loss in the proximal tibia metaphysis of rats given daily oral letrozole
Description: (§4) It was investigated whether bone loss induced in rats by either ovariectomy (OVX) or the aromatase inhibitor letrozole (Let) could be prevented by the bisphosphonate zoledronic acid (Zol).
as §1

OVX rats [3] = assay: pQCT monitoring of bone loss in the proximal tibia metaphysis of ovariectomized rats
Description: as §4, §1

OVX rats [4] = assay: Compression test of the 5th lumbar vertebral body after OVX; conditions: single iv 0.8, 4 or 20 μg/kg
Description: as §1, §2, §3

[5] = daily oral letrozole 1 mg/kg, at 24 weeks, P<0.01 vs sham
[6] = letrozole-treated rats, 4 μg/kg iv
[7] = letrozole-treated rats, highest dose (20 μg/kg iv), P<0.01 vs letrozole, NS vs sham

**Q.** What does the source list for `N#Cc1ccc(C(c2ccc(C#N)cc2)n2cncn2)cc1` [letrozole, 4-[α-(4-cyanophenyl)-1-(1,2,4-triazolyl)methyl]-benzonitrile]?
**A.** ultimate bone strength of 5th lumbar vertebral body (letrozole-treated rats [1]; daily oral letrozole 1 mg/kg for 24 weeks, NS): decreased; change in cancellous bone mineral density (cancellous bone loss) (letrozole-treated rats [2]; [5]): −26%; change in mean cortical thickness (letrozole-treated rats [2]; [5]): −21%; change in total BMD (letrozole-treated rats [2]; [5]): −13%

**Q.** Which “duration of full protection against cancellous bone loss” value (OVX rats [3]; highest dose (20 μg/kg iv)) does the source give for `O=P(O)(O)C(O)(Cn1ccnc1)P(=O)(O)O` [zoledronic acid, 2-(imidazol-1yl)-1-hydroxyethane-1,1-diphosphonic acid] here?
**A.** 20 weeks

**Q.** And the “duration of full protection of total BMD (NS vs sham)” value (OVX rats [3]; highest dose (20 μg/kg iv))?
**A.** 24 week

**Q.** What about the “protection of cortical thickness (NS vs sham at all time points)” value (OVX rats [3]; highest dose (20 μg/kg iv), 24-week study) of the same compound?
**A.** fully protective for the full duration of the study

**Q.** And the “cancellous bone at 24 weeks” value (OVX rats [3]; highest dose (20 μg/kg iv), 24 weeks, NS vs sham)?
**A.** mild cancellous bone loss was visible

**Q.** What about the “time for which cancellous bone loss was delayed (marginally but significantly)” value (OVX rats [3]; single iv 0.8 μg/kg) of the same compound?
**A.** 12 weeks

**Q.** And the “protective effect on mean cortical thickness” value (OVX rats [3]; single iv 0.8 μg/kg, at 2 weeks, P<0.05 vs OVX)?
**A.** marginal protective effect

**Q.** And the “time for which cancellous bone mineral density was significantly better than in OVX controls” value (OVX rats [3]; single iv 4 μg/kg)?
**A.** 24 weeks

**Q.** And the “time for which cortical thickness was significantly better than in OVX controls” value (OVX rats [3]; single iv 4 μg/kg)?
**A.** 12 weeks

**Q.** What about the “time for which cancellous bone mineral density was significantly better than in OVX controls” value (OVX rats [3]; single iv 20 μg/kg) of the same compound?
**A.** 24 weeks

**Q.** And the “time for which cortical thickness was significantly better than in OVX controls” value (OVX rats [3]; single iv 20 μg/kg)?
**A.** 24 weeks

**Q.** And the “time for which bone loss (total BMD) was delayed significantly” value (OVX rats [3]; single iv injection 0.8 μg/kg 3 days before OVX)?
**A.** 8 weeks

**Q.** And the “time for which bone loss (total BMD) was delayed significantly” value (OVX rats [3]; single iv injection 4 μg/kg)?
**A.** 20 weeks

**Q.** And the “time for which bone loss (total BMD) was delayed significantly” value (OVX rats [3]; single iv injection 20 μg/kg)?
**A.** 24 weeks

**Q.** And the “ultimate bone strength of 5th lumbar vertebral body” value (letrozole-treated rats [1]; letrozole-treated rats, single iv 0.8, 4 or 20 μg/kg, compression)?
**A.** dose-dependently improved

**Q.** And the “time for which cancellous bone loss was fully prevented” value (letrozole-treated rats [2]; [6])?
**A.** 8 weeks

**Q.** What about the “time for which cancellous bone mineral density remained significantly higher than in letrozole-treated rats” value (letrozole-treated rats [2]; [6]) of the same compound?
**A.** 24 weeks

**Q.** What about the “time for which cortical thinning was fully prevented” value (letrozole-treated rats [2]; [6]) of the same compound?
**A.** 4 weeks

**Q.** And the “week until which cortical thickness stayed significantly above the letrozole control” value (letrozole-treated rats [2]; letrozole-treated rats, 4 μg/kg iv, P<0.01 vs letrozole)?
**A.** 20 week

**Q.** And the “duration of full protection of total BMD (NS vs sham)” value (letrozole-treated rats [2]; letrozole-treated rats, highest dose (20 μg/kg iv))?
**A.** 24 week

**Q.** And the “duration of full protection against cancellous bone loss” value (letrozole-treated rats [2]; [7])?
**A.** 24 weeks

**Q.** And the “time for which cortical thinning was fully protected against” value (letrozole-treated rats [2]; [7])?
**A.** 24 weeks

**Q.** And the “time for which bone loss (total BMD) was delayed (marginally but significantly)” value (letrozole-treated rats [2]; letrozole-treated rats, single iv 0.8 μg/kg)?
**A.** 4 weeks

**Q.** And the “time for which cancellous bone loss was delayed (marginally but significantly)” value (letrozole-treated rats [2]; letrozole-treated rats, single iv 0.8 μg/kg, P<0.05 vs letrozole)?
**A.** 8 weeks

**Q.** And the “protective effect on mean cortical thickness” value (letrozole-treated rats [2]; letrozole-treated rats, single iv 0.8 μg/kg, at 2 weeks, P<0.05 vs letrozole)?
**A.** marginal but significant protective effect

**Q.** And the “time for which bone loss (total BMD) was delayed significantly” value (letrozole-treated rats [2]; letrozole-treated rats, single iv 4 μg/kg, P<0.01 vs letrozole)?
**A.** 24 weeks

**Q.** What about the “time for which bone loss (total BMD) was delayed significantly” value (letrozole-treated rats [2]; letrozole-treated rats, single iv 20 μg/kg, P<0.01 vs letrozole) of the same compound?
**A.** 24 weeks

**Q.** What about the “duration of full protection against Let-induced bone loss” value (letrozole-treated rats [2]; rats, dose of 20 μg/kg) of the same compound?
**A.** at least 24 weeks

**Q.** And the “protection against cancellous bone loss, cortical thinning and reduction of bone strength induced by daily oral Let” value (letrozole-treated rats [2]; rats, summary in discussion)?
**A.** dose-dependently protects

**Q.** And the “protection against bone loss in rats treated with letrozole” value (letrozole-treated rats [2]; summary statement)?
**A.** long term protection against bone loss

**Q.** And the “ultimate bone strength of 5th lumbar vertebral body” value (OVX rats [4])?
**A.** dose-dependently improved

From patent publication US20060069067A1, “Combination of an aromatase inhibitor with a bisphosphonate” (priority 2002, published 2006)
